Reference: paper PMC5100903, “Tissue Kallikrein Inhibitors Based on the Sunflower Trypsin Inhibitor Scaffold – A Potential Therapeutic Intervention for Skin Diseases” (PLoS ONE, 2016)
Where two headings read alike, the source gives them in different places. Positions of bridges follow the written chain, without caps; N, C: chain ends. Residues, ends and D or L forms follow the SMILES beside them.

What was measured:
Experiment in all cases: biochemical
[1] = molecular target: T1, KLK8 (Homo sapiens, UniProt O60259)
T1 construct: purchased R&D
T1 sequence (O60259 33-260): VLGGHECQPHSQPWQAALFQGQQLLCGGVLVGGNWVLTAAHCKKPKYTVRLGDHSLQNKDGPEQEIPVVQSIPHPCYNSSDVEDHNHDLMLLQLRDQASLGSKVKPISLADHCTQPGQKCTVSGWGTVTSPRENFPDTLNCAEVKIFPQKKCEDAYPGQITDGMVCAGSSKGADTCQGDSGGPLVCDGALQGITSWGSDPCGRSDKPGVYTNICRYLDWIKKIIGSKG
Experimental: (§1) All assays were performed on 96-well microplates and the change in relative fluorescence unit (RFU) was measured by fluorescence spectrometer (BMG FLUOstar OPTIMA). The excitation/emission wavelength was 360/460 nm for the substrate Boc-VPR-AMC (Bachem AG, Hauptstrasse, Switzerland) and MeOSuc-AAPV-AMC (Bachem AG, Hauptstrasse, Switzerland) and 485/520 nm for BODIPY_FL casein (Invitrogen, Carlsbad, US). Stock solution of Boc-VPR-AMC was prepared by dissolving the solid in dimethyl sulfoxide to 100 mM and 10 mM for MeOSuc-AAPV. For BODIPY_FL casein, it was reconstituted to 1 mg/mL in 1xPBS. […] The % of inhibition was calculated by the following equation: % of Inhibition=(1−(Sample RFU − Min RFU)/(Max RFU − Min RFU)) X100
(§2) Each inhibition curves were done in triplicates with a minimum of five concentration points fitted. Fitting of each curve was done using SigmaPlot with the Four Parameter Logistic Function and the IC50 calculated. […] All tested compounds were reconstituted to stock solution in water.
(§3) Recombinant KLK7, KLK8 and KLK14 (>95% purity by SDS-PAGE, endotoxin <0.1 ng/μg, R&D, Minneapolis, U.S.) stocks were diluted with 1xPBS to a concentration of 120 nM. KLK7 and KLK14 were activated by addition of 1 mM f/c CaCl2 (Sigma, Dorset, U.K.), 0.05% v/v Brij35 (Sigma, Dorset, U.K.), 20 nM f/c thermolysin (Sigma, Dorset, U.K.) and incubated at 37°C for 1 hour. The reaction was stopped by addition of ethylenediaminetetraacetic acid (EDTA, 50 mM f/c). KLK8 was activated by addition of 11 nM f/c lysyl endopeptidase (Santa Cruz Biotechnology, Dallas, U.S.) and incubation at 37°C for 0.5 hour. […] The RFU value reached by the thermolysin control was used as the minimum RFU for calculating the % of inhibition for KLK7.
(§4) The diluent for all the tested compounds, protein and substrate (except KLK7, which was done with 10 mM Tris pH 7.8) was 1xPBS pH 8.0–8.9. The serially diluted ligands were mixed with diluted bovine trypsin (Sigma, Dorset, U.K.) or activated KLK14, or KLK5, or activated KLK8 or matriptase (catalytic domain only, >90% purity by SDS-PAGE, endotoxin <0.1 ng/μg, R&D, Minneapolis, U.S.) or activated KLK7 or human neutrophil elastase (purified from human plasma, >95% purity by SDS-PAGE, Abcam, Cambridge, U.K.) or porcine pancreatic elastase 1 (Sigma, Dorset, U.K.) or human plasma kallikrein or human plasma plasmin (purified from human plasma, ≥95% purity by SDS-PAGE, BioVision, Milpitas, U.S.). 20μL of the ligand-protein mixture was pipetted to a well of a 96-well microplate in triplicates. The reaction was started by addition of 90–100 μL of the diluted substrate solution (contained 0.05% v/v Brij35) and the plate incubated at 25°C but 37°C for KLK7. RFU reading for each well was taken 6 minutes (trypsin) or 15 minutes (KLK14, KLK5, KLK8, matriptase, human neutrophil elastase, porcine pancreatic elastase 1, plasma kallikrein and plasmin) or 20 hours (KLK7) after substrate addition.

[2] = molecular target: T2, KLK7 (Homo sapiens, UniProt P49862); conditions: for inhibition at 11 µM: read-out: % inhibition of KLK7
T2 construct: purchased R&D
T2 sequence (P49862 30-253): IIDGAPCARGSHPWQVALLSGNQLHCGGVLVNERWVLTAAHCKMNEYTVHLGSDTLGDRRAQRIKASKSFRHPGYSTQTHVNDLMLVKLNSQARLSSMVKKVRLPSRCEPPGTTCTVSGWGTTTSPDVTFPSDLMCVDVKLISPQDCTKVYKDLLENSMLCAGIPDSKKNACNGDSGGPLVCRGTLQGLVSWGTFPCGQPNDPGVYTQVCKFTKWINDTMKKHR
Experimental: as §1, §2, §3, §4

[3] = molecular target: T3, KLK5 (Homo sapiens, UniProt Q9Y337); assay type: binding; conditions: for Stoichiometry (N) / ΔH / ΔS / ΔG / Ka: ITC; for ΔG: 25°C; for Ka: 25°C (Table S2, unit not given)
T3 construct: purchased Novoprotein
T3 sequence (Q9Y337 23-293): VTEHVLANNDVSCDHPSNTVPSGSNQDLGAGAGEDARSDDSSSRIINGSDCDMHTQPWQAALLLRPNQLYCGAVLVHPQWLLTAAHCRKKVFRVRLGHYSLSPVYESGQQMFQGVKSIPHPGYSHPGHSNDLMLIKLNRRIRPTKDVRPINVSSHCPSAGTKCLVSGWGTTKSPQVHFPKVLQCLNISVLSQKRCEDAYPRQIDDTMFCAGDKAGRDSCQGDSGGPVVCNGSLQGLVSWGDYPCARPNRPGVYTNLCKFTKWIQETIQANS
Experimental: ITC experiments were performed on a MicroCal iTC200 calorimeter (GE Healthcare, Uppsala, Sweden) at 298.15 K with a stirring speed of 750 revolutions per minute. Concentrated (450 μM) ligand solutions were injected into protein (KLK5) solution (20 μM, 280 μL sample volume) in the sample cell. Injection volumes were 2 μL for I10H and Analogue 1 and 1 μL for Analogue 2 and 6 with a spacing of 120 seconds between each injection. Concentrations of ligands were determined by dried weight and they were reconstituted to 10 mM stock in H2O. Concentration of KLK5 was determined by UV280 calculated with an extinction coefficient of 38680 and molecular weight of 32KDa (including weight of glycosylation). The protein solution were buffer exchanged using spin column to 1xPBS (137 mM NaCl, 2.7 mM KCl, 4.3 mM Na2HPO4, 1.47 mM KH2PO4 pH 8.0) or 20 mM MES buffer (with 150 mM NaCl, pH 5.5). Ligand stocks were diluted in those buffers (4.5 μL + 95.5 μL buffer), and then equal v/v % of H2O was added to the protein solution after buffer exchange to ensure matching buffer contents. Heat of dilution was undetectable in control experiments. Data were analyzed using OriginLab version 7.0.

[4] = molecular target: T3, KLK5
Experimental: as §1, §2, §4
There are two previously reported Km values for KLK5 and its substrate Boc-VPR-AMC which allowed the IC50 to Ki conversion. Ki values were calculated according to the Cheng-Prusoff equation Ki= IC50/1+[S]/Km for single site competitive binding.

[5] = enzyme 9 nM, Boc-VPR-AMC 42 μM, 25°C, 15 minutes
[6] = at 11 μM, enzyme 10 nM, BODIPY_FL casein 6.5 μg/mL, 37°C, 20 hours
[7] = calculated from Table 3 IC50 by Cheng-Prusoff equation, read-out: Ki, KLK5 (converted)
[8] = enzyme 10 nM, Boc-VPR-AMC 42 μM, 1xPBS pH 8.0–8.9, 25°C, 15 minutes

| Structure (SMILES) | IC50 [1] [nM] | inhibition at 11 µM [2] [%] | Kd [3] [nM] | Stoichiometry (N) ([3]; 1xPBS pH 8.0, 25°C) | ΔH ([3]; 1xPBS pH 8.0, 25°C) [kcal/mol] | ΔS ([3]; 1xPBS pH 8.0, 25°C) [cal mol^-1 kelvin^-1] | ΔG [3] [kcal/mol] | Ka [3] | IC50 [2] [nM] | increase in binding affinity for KLK5 from I10H ([3]; ITC Kd) | IC50 [4] [nM] | Ki [4] [nM] | IC50 [1, 5] [nM] | inhibition at 11 µM [2, 6] [%] | Kd ([3]; 1xPBS pH 8.0, 25°C, read-out: ITC Kd) [nM] | Ki [4, 7] [nM] | IC50 [4, 8] [nM] |
| --- | --- | --- | --- | --- | --- | --- | --- | --- | --- | --- | --- | --- | --- | --- | --- | --- | --- |
| CC[C@H](C)[C@@H]1NC(=O)[C@H](CO)NC(=O)[C@H](CCCCN)NC(=O)[C@H]([C@@H](C)O)NC(=O)[C@@H]2CSSC[C@H](NC(=O)[C@H](Cc3c[nH]cn3)NC(=O)[C@@H]3CCCN3C(=O)[C@@H]3CCCN3C1=O)C(=O)N[C@@H](Cc1c[nH]c3ccccc13)C(=O)N1CCC[C@H]1C(=O)N[C@@H](CC(=O)O)C(=O)NCC(=O)N[C@@H](CCCNC(=N)N)C(=O)N2 [Analogue 2] (cyclo(CTKSIPPHCWPDGR); disulfide 1-9) | 563 ± 14 | 28 | 96 | 1.01±0.01 | 4.196 ± 0.065 | 46.2 | -9.579 | 1.0E7±1.8E6 | – | – | – | – | – | – | – | – | – |
| CC[C@H](C)[C@@H]1NC(=O)[C@H](CO)NC(=O)[C@H](CCCNC(=N)N)NC(=O)[C@H]([C@@H](C)O)NC(=O)[C@@H]2CSSC[C@H](NC(=O)[C@H](Cc3c[nH]cn3)NC(=O)[C@@H]3CCCN3C(=O)[C@@H]3CCCN3C1=O)C(=O)N[C@@H](Cc1c[nH]c3ccccc13)C(=O)N1CCC[C@H]1C(=O)N[C@@H](CC(=O)O)C(=O)NCC(=O)N[C@@H](CCCNC(=N)N)C(=O)N2 [Analogue 6] (cyclo(CTRSIPPHCWPDGR); disulfide 1-9) | 373 ± 31 | – | 20 | 1.01±0.01 | 2.014 ± 0.017 | 42.0 | -10.51 | 5.0E7±1.2E7 | 534 ± 29 | around 25 times | 56 ± 0.5 | 51 | – | – | – | – | – |
| CC[C@H](C)[C@@H]1NC(=O)[C@H](CO)NC(=O)[C@H](CCCCN)NC(=O)[C@H]([C@@H](C)O)NC(=O)[C@@H]2CSSC[C@H](NC(=O)[C@H](Cc3c[nH]cn3)NC(=O)[C@@H]3CCCN3C(=O)[C@@H]3CCCN3C1=O)C(=O)N[C@@H](Cc1ccccc1)C(=O)N1CCC[C@H]1C(=O)N[C@@H](CC(=O)O)C(=O)NCC(=O)N[C@@H](CCCNC(=N)N)C(=O)N2 [Analogue I10H] (cyclo(CFPDGRCTKSIPPH); disulfide 1-7) | – | – | – | 1.06±0.02 | 1.963 ± 0.051 | 35.5 | -8.621 | 2.1E6±5.6E5 | – | – | – | – | 1680 ± 51 | 0 | 485 | 478 | 523 ± 11 |
| CC[C@H](C)[C@@H]1NC(=O)[C@@H]2CCCN2C(=O)[C@@H]2CCCN2C(=O)[C@H]([C@@H](C)CC)NC(=O)[C@H](CO)NC(=O)[C@H](CCCCN)NC(=O)[C@H]([C@@H](C)O)NC(=O)[C@@H]2CSSC[C@H](NC1=O)C(=O)N[C@@H](Cc1ccccc1)C(=O)N1CCC[C@H]1C(=O)N[C@@H](CC(=O)O)C(=O)NCC(=O)N[C@@H](CCCNC(=N)N)C(=O)N2 [Native SFTI, Sunflower Trypsin Inhibitor 1, reference compound] | – | – | – | – | – | – | – | – | – | – | – | – | 1290 ± 251 | 18 | – | 210 | 230 ± 3 |
